# Measurements taken from ChEMBL document CHEMBL1949630, “Discovery of benzodihydroisofurans as novel, potent, bioavailable and brain-penetrant prolylcarboxypeptidase inhibitors” (Bioorg Med Chem Lett, 2012).
# Legend:
# [1] = target: T1, Lysosomal Pro-X carboxypeptidase (Mus musculus, UniProt Q7TMR0); experiment: Inhibition of mouse PrCP
# T1 sequence (Q7TMR0 whole entry): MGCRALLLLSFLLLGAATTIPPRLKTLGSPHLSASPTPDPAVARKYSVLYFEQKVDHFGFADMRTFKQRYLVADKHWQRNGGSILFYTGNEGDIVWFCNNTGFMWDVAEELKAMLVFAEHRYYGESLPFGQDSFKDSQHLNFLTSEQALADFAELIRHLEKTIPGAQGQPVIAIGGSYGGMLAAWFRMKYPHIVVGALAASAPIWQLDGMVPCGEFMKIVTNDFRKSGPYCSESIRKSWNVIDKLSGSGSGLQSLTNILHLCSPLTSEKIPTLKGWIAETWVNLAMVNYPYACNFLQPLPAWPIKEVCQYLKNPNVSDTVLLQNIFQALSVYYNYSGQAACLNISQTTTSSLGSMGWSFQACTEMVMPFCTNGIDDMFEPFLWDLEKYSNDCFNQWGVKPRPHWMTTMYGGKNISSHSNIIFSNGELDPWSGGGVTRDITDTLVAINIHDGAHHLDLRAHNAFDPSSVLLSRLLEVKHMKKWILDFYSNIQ
# [2] = target: T1, Lysosomal Pro-X carboxypeptidase; experiment: Inhibition of PrCP in mouse plasma assessed as angiotensin 3 cleavage by whole serum shift assay
# [3] = Fraction unbound in human plasma; assay type: ADME, cell-free
# [4] = Fraction unbound in mouse plasma; assay type: ADME, cell-free
# [5] = Oral bioavailability in C57BL/6 mouse at 1 mg/kg by LC/MS/MS analysis; assay type: ADME, organism-based; conditions: in vivo
# [6] = Clearance in C57BL/6 mouse at 0.5 mg/kg, iv and 1 mg/kg, po by LC/MS/MS analysis; assay type: ADME, organism-based; conditions: in vivo
# [7] = Volume of distribution at steady state in C57BL/6 mouse at 0.5 mg/kg, iv and 1 mg/kg, po by LC/MS/MS analysis; assay type: ADME, organism-based; conditions: in vivo, read-out: Vdss
# [8] = Half life in C57BL/6 mouse at 0.5 mg/kg, iv and 1 mg/kg, po by LC/MS/MS analysis; assay type: ADME, organism-based; conditions: in vivo
# Mus musculus [9] = experiment: Dose normalized AUC in C57BL/6 mouse at 1 mg/kg by LC/MS/MS analysis; assay type: ADME, organism-based; set-up: dose 1 mg/kg; conditions: in vivo
# [10] = Oral bioavailability in C57BL/6 mouse at 2 mg/kg by LC/MS/MS analysis; assay type: ADME, organism-based; conditions: in vivo
# [11] = Clearance in C57BL/6 mouse at 1 mg/kg, iv and 2 mg/kg, po by LC/MS/MS analysis; assay type: ADME, organism-based; conditions: in vivo
# [12] = Volume of distribution at steady state in C57BL/6 mouse at 1 mg/kg, iv and 2 mg/kg, po by LC/MS/MS analysis; assay type: ADME, organism-based; conditions: in vivo, read-out: Vdss
# [13] = Half life in C57BL/6 mouse at 1 mg/kg, iv and 2 mg/kg, po by LC/MS/MS analysis; assay type: ADME, organism-based; conditions: in vivo
# Mus musculus [14] = experiment: Dose normalized AUC in C57BL/6 mouse at 2 mg/kg by LC/MS/MS analysis; assay type: ADME, organism-based; set-up: dose 2 mg/kg; conditions: in vivo
IC50 [1] [nM],IC50 [2] [nM],fraction unbound [3],fraction unbound [4],bioavailability [5] [%],clearance [6] [mL/min/kg],Vd [7] [L/kg],half-life [8] [h],AUC/dose (Mus musculus [9]) [µM·kg·h/mg],Compound,bioavailability [10] [%],clearance [11] [mL/min/kg],Vd [12] [L/kg],half-life [13] [h],AUC/dose (Mus musculus [14]) [µM·kg·h/mg]
1.8,712,< 0.0006,< 0.0006,36,33,9.5,4.8,0.33,O=S(=O)(c1ccc(OC(F)(F)F)cc1)N1CCC2(CC1)OC(c1cc(Cl)cc(Cl)c1)c1cccnc12 (racemic),–,–,–,–,–
0.11,–,0.05,0.025,23,87,12,2.1,0.1,O=S(=O)(c1ccc(C(F)(F)F)cn1)N1CCC2(CC1)OC(c1cc(Cl)cc[n+]1[O-])c1ccccc12 (racemic),–,–,–,–,–

Compound,IC50 [1] [nM],IC50 [2] [nM],fraction unbound [3],fraction unbound [4],bioavailability [5] [%],clearance [6] [mL/min/kg],Vd [7] [L/kg],half-life [8] [h],AUC/dose (Mus musculus [9]) [µM·kg·h/mg],bioavailability [10] [%],clearance [11] [mL/min/kg],Vd [12] [L/kg],half-life [13] [h],AUC/dose (Mus musculus [14]) [µM·kg·h/mg]
"[O-][n+]1ccc(Cl)cc1C1OC2(CCN(Cc3ccc(OC(F)(F)F)cc3)CC2)c2ccccc21 (single isomer, unassigned)",0.38,–,0.006,0.007,–,–,–,–,–,72,57,27,5.6,0.43
